# Measured values published in ChEMBL document CHEMBL3991601, “The target landscape of clinical kinase drugs” (Science, 2017).
# Calls of active or inactive are those of the source.
# Target: Protein kinase C alpha type (Homo sapiens, UniProt P17252)
# Also: in the data inactive means no Kd found up to 30 µM.
row,Compound,Kd
1,Cc1ccc(S(=O)(=O)Nc2nc3ccccc3nc2Nc2ccc3nsnc3c2)cc1,> 30 µM (inactive)
2,COc1cc(N2CCC(N3CCN(C)CC3)CC2)ccc1Nc1ncnc(Nc2ccccc2S(=O)(=O)C(C)C)n1 [ASP-3026],> 30 µM (inactive)
3,COc1cc(CCc2cc(NC(=O)c3ccc(N4C[C@@H](C)N[C@@H](C)C4)cc3)n[nH]2)cc(OC)c1 [AZD-4547],> 30 µM (inactive)

# Target: Chromodomain-helicase-DNA-binding protein 4 (Homo sapiens, UniProt Q14839)
# Sequence (Q14839 whole entry): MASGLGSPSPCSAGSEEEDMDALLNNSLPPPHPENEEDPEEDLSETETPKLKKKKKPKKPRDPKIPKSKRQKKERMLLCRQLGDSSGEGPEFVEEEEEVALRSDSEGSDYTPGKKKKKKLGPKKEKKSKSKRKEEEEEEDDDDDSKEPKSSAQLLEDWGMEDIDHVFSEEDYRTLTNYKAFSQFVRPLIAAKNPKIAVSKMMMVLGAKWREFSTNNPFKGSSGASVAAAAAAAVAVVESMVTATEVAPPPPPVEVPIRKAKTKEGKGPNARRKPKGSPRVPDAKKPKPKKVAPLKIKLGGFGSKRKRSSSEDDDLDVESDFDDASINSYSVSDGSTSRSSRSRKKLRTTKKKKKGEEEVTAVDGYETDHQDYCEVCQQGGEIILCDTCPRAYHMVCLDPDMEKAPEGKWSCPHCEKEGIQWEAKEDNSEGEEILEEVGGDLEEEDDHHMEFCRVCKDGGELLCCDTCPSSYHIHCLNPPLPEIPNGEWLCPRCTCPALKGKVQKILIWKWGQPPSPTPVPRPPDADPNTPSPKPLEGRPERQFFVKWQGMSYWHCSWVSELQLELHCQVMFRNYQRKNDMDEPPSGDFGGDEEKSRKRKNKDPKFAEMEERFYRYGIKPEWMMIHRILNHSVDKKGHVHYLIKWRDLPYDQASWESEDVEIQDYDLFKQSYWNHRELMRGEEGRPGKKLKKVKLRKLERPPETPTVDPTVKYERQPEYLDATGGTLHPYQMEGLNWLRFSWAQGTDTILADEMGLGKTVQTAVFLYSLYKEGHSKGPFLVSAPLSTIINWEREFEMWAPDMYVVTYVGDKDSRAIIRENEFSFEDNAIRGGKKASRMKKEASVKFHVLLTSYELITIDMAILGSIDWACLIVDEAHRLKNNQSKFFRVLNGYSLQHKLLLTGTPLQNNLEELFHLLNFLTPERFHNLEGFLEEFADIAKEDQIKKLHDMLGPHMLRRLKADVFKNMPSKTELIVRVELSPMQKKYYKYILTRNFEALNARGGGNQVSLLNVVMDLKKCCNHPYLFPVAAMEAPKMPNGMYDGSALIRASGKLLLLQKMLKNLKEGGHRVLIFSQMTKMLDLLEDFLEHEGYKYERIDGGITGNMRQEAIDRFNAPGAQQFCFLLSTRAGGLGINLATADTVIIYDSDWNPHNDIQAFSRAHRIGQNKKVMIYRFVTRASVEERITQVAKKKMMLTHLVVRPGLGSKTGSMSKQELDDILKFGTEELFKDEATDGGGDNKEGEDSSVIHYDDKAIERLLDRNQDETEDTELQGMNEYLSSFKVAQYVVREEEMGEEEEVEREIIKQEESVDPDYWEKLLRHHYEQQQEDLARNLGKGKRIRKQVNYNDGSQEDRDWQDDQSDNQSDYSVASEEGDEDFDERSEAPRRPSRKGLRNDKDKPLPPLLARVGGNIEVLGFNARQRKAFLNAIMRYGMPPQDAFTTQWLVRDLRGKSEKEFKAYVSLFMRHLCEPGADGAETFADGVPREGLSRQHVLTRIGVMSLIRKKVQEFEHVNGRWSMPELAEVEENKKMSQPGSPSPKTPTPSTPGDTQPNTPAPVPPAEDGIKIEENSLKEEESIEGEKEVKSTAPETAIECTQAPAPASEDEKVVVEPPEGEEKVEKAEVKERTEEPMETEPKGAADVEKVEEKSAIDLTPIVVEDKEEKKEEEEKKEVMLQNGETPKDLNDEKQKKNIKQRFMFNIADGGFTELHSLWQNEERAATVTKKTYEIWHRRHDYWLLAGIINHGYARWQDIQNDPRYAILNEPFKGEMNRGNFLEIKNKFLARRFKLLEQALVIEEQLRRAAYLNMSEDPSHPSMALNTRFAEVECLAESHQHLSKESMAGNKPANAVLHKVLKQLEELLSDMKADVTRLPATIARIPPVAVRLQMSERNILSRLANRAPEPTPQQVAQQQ
row,Compound,Kd
1,Cc1ccc(S(=O)(=O)Nc2nc3ccccc3nc2Nc2ccc3nsnc3c2)cc1,> 30 µM (inactive)
2,COc1cc(N2CCC(N3CCN(C)CC3)CC2)ccc1Nc1ncnc(Nc2ccccc2S(=O)(=O)C(C)C)n1 [ASP-3026],> 30 µM (inactive)
3,COc1cc(CCc2cc(NC(=O)c3ccc(N4C[C@@H](C)N[C@@H](C)C4)cc3)n[nH]2)cc(OC)c1 [AZD-4547],> 30 µM (inactive)

# Target: T1, Phenylalanine--tRNA ligase beta subunit (Homo sapiens, UniProt Q9NSD9)
# T1 sequence (Q9NSD9 whole entry): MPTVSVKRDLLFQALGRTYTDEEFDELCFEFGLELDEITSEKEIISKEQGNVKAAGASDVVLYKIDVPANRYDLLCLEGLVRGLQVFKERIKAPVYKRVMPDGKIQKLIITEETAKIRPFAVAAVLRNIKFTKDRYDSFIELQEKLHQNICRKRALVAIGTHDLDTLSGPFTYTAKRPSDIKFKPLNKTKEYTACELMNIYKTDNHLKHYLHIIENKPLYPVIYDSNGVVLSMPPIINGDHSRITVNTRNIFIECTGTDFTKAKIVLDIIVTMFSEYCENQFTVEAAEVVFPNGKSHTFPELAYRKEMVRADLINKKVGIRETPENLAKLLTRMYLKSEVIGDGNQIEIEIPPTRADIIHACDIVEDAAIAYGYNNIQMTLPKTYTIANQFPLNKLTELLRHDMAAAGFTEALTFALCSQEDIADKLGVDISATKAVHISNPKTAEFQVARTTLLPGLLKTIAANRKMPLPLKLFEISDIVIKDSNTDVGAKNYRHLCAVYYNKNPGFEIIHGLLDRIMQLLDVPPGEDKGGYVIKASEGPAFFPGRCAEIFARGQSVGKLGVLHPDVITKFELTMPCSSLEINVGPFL
row,Compound,Kd
1,Cc1ccc(S(=O)(=O)Nc2nc3ccccc3nc2Nc2ccc3nsnc3c2)cc1,> 30 µM (inactive)
2,COc1cc(N2CCC(N3CCN(C)CC3)CC2)ccc1Nc1ncnc(Nc2ccccc2S(=O)(=O)C(C)C)n1 [ASP-3026],> 30 µM (inactive)
3,COc1cc(CCc2cc(NC(=O)c3ccc(N4C[C@@H](C)N[C@@H](C)C4)cc3)n[nH]2)cc(OC)c1 [AZD-4547],> 30 µM (inactive)

# Target: Myosin-14 (Homo sapiens, UniProt Q7Z406)
row,Compound,Kd
1,COc1cc(CCc2cc(NC(=O)c3ccc(N4C[C@@H](C)N[C@@H](C)C4)cc3)n[nH]2)cc(OC)c1 [AZD-4547],> 30 µM (inactive)

# Target: 26S proteasome regulatory subunit 6B (Homo sapiens, UniProt P43686)
# Sequence (P43686 whole entry): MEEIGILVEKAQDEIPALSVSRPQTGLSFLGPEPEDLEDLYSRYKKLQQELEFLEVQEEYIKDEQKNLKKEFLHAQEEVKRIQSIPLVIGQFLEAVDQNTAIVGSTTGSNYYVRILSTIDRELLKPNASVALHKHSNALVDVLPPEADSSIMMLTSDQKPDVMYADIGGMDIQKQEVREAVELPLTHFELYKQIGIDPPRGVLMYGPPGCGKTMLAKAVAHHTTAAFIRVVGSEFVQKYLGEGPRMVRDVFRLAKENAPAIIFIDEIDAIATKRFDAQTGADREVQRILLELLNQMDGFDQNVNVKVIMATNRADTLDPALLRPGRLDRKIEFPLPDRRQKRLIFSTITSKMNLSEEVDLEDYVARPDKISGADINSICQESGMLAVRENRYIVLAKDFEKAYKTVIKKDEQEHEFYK
row,Compound,Kd
1,Cc1ccc(S(=O)(=O)Nc2nc3ccccc3nc2Nc2ccc3nsnc3c2)cc1,> 30 µM (inactive)
2,COc1cc(N2CCC(N3CCN(C)CC3)CC2)ccc1Nc1ncnc(Nc2ccccc2S(=O)(=O)C(C)C)n1 [ASP-3026],> 30 µM (inactive)
3,COc1cc(CCc2cc(NC(=O)c3ccc(N4C[C@@H](C)N[C@@H](C)C4)cc3)n[nH]2)cc(OC)c1 [AZD-4547],> 30 µM (inactive)

# Target: Wee1-like protein kinase (Homo sapiens, UniProt P30291)
row,Compound,Kd
1,Cc1ccc(S(=O)(=O)Nc2nc3ccccc3nc2Nc2ccc3nsnc3c2)cc1,> 30 µM (inactive)
2,COc1cc(N2CCC(N3CCN(C)CC3)CC2)ccc1Nc1ncnc(Nc2ccccc2S(=O)(=O)C(C)C)n1 [ASP-3026],> 30 µM (inactive)
3,COc1cc(CCc2cc(NC(=O)c3ccc(N4C[C@@H](C)N[C@@H](C)C4)cc3)n[nH]2)cc(OC)c1 [AZD-4547],> 30 µM (inactive)

# Target: T2, Electron transfer flavoprotein subunit beta (Homo sapiens, UniProt P38117)
# T2 sequence (P38117 whole entry): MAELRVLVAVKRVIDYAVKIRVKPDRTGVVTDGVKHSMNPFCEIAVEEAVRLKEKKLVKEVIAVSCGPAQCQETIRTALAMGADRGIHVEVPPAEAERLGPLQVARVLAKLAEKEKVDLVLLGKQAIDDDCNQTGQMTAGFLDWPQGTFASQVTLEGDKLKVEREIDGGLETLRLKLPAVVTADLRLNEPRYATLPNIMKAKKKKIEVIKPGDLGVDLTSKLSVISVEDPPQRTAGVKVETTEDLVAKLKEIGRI
row,Compound,Kd
1,COc1cc(N2CCC(N3CCN(C)CC3)CC2)ccc1Nc1ncnc(Nc2ccccc2S(=O)(=O)C(C)C)n1 [ASP-3026],> 30 µM (inactive)

# Target: T3, Tyrosine--tRNA ligase, cytoplasmic (Homo sapiens, UniProt P54577)
# T3 sequence (P54577 whole entry): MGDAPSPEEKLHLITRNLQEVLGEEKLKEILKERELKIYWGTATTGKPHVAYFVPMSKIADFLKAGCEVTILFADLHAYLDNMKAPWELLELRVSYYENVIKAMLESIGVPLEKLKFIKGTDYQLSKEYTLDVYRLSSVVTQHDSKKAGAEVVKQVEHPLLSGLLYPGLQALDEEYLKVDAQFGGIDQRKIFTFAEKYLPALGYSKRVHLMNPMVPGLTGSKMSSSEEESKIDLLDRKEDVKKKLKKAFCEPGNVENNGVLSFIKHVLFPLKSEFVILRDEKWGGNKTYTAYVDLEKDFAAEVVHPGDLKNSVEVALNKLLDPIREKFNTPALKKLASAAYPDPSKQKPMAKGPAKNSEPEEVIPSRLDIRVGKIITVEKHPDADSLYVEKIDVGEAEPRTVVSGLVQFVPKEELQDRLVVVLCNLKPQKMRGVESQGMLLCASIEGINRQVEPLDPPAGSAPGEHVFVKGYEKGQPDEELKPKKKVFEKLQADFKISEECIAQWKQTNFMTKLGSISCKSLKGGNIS
row,Compound,Kd
1,Cc1ccc(S(=O)(=O)Nc2nc3ccccc3nc2Nc2ccc3nsnc3c2)cc1,> 30 µM (inactive)
2,COc1cc(N2CCC(N3CCN(C)CC3)CC2)ccc1Nc1ncnc(Nc2ccccc2S(=O)(=O)C(C)C)n1 [ASP-3026],> 30 µM (inactive)
3,COc1cc(CCc2cc(NC(=O)c3ccc(N4C[C@@H](C)N[C@@H](C)C4)cc3)n[nH]2)cc(OC)c1 [AZD-4547],> 30 µM (inactive)

# Target: Ephrin type-A receptor 2 (Homo sapiens, UniProt P29317)
# Sequence (P29317 whole entry): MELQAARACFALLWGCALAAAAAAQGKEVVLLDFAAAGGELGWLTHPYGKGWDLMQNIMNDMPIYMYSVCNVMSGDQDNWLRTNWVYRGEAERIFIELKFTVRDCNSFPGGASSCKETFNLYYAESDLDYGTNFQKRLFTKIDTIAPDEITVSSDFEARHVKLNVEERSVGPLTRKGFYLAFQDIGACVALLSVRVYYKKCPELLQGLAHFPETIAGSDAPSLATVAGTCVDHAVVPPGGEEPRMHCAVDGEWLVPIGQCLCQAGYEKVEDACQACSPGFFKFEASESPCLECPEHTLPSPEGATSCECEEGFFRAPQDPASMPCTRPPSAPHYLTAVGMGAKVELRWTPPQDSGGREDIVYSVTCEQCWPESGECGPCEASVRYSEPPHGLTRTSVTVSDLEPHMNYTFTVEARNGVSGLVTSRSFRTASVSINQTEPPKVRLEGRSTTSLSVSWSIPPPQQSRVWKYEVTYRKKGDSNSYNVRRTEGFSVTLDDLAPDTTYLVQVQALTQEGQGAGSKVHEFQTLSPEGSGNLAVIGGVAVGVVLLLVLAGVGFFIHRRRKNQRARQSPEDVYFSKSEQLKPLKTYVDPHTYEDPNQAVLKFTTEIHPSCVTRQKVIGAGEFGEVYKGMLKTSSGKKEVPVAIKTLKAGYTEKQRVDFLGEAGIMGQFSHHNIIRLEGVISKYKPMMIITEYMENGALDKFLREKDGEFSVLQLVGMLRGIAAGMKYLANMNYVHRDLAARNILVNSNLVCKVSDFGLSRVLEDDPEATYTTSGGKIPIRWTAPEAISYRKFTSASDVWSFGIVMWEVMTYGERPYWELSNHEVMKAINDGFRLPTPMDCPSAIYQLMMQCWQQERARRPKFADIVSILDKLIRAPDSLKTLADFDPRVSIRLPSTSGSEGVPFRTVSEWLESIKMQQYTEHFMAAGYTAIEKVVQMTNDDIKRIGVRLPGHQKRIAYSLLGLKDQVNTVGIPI
row,Compound,Kd
1,Cc1ccc(S(=O)(=O)Nc2nc3ccccc3nc2Nc2ccc3nsnc3c2)cc1,> 30 µM (inactive)
2,COc1cc(N2CCC(N3CCN(C)CC3)CC2)ccc1Nc1ncnc(Nc2ccccc2S(=O)(=O)C(C)C)n1 [ASP-3026],1.25 µM (active)
3,COc1cc(CCc2cc(NC(=O)c3ccc(N4C[C@@H](C)N[C@@H](C)C4)cc3)n[nH]2)cc(OC)c1 [AZD-4547],> 30 µM (inactive)

# Target: Mitogen-activated protein kinase kinase kinase 4 (Homo sapiens, UniProt Q9Y6R4)
row,Compound,Kd
1,Cc1ccc(S(=O)(=O)Nc2nc3ccccc3nc2Nc2ccc3nsnc3c2)cc1,> 30 µM (inactive)
2,COc1cc(N2CCC(N3CCN(C)CC3)CC2)ccc1Nc1ncnc(Nc2ccccc2S(=O)(=O)C(C)C)n1 [ASP-3026],> 30 µM (inactive)
3,COc1cc(CCc2cc(NC(=O)c3ccc(N4C[C@@H](C)N[C@@H](C)C4)cc3)n[nH]2)cc(OC)c1 [AZD-4547],> 30 µM (inactive)

# Target: Putative heat shock protein HSP 90-beta 2 (Homo sapiens, UniProt Q58FF8)
# Sequence (Q58FF8 whole entry): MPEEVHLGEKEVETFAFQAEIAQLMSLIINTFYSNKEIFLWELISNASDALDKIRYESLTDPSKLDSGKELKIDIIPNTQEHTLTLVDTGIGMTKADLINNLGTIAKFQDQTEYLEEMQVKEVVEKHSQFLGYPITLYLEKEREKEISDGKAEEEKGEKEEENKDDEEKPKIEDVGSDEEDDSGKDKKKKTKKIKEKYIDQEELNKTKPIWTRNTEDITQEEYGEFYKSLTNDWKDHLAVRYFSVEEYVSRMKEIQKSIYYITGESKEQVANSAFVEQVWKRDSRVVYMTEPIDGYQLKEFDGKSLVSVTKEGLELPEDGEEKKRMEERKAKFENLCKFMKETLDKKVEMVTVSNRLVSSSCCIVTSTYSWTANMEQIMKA
row,Compound,Kd
1,COc1cc(N2CCC(N3CCN(C)CC3)CC2)ccc1Nc1ncnc(Nc2ccccc2S(=O)(=O)C(C)C)n1 [ASP-3026],> 30 µM (inactive)
2,COc1cc(CCc2cc(NC(=O)c3ccc(N4C[C@@H](C)N[C@@H](C)C4)cc3)n[nH]2)cc(OC)c1 [AZD-4547],> 30 µM (inactive)

# Target: Inosine-5'-monophosphate dehydrogenase 2 (Homo sapiens, UniProt P12268)
row,Compound,Kd
1,Cc1ccc(S(=O)(=O)Nc2nc3ccccc3nc2Nc2ccc3nsnc3c2)cc1,> 30 µM (inactive)
2,COc1cc(CCc2cc(NC(=O)c3ccc(N4C[C@@H](C)N[C@@H](C)C4)cc3)n[nH]2)cc(OC)c1 [AZD-4547],> 30 µM (inactive)

# Target: Interleukin-1 receptor-associated kinase 1 (Homo sapiens, UniProt P51617)
# Sequence (P51617 whole entry): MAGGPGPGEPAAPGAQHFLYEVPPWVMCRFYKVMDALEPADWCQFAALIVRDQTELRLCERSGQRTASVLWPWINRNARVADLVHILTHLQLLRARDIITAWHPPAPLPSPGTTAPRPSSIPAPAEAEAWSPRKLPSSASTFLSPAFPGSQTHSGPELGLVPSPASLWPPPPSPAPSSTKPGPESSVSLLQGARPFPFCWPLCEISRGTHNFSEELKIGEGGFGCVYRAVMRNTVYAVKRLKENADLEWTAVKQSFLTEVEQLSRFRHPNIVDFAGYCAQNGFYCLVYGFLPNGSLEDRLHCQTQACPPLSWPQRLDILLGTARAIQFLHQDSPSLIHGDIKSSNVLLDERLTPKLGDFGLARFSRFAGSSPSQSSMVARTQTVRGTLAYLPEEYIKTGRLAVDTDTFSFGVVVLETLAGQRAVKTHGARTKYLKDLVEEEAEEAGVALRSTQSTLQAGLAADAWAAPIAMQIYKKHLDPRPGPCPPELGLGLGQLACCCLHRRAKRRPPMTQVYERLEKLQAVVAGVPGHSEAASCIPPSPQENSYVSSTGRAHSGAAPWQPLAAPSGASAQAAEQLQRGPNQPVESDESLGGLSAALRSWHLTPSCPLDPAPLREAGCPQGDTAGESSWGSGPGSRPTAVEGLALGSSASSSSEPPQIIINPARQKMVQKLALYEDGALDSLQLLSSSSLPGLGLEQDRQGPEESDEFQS
row,Compound,Kd
1,Cc1ccc(S(=O)(=O)Nc2nc3ccccc3nc2Nc2ccc3nsnc3c2)cc1,> 30 µM (inactive)
2,COc1cc(N2CCC(N3CCN(C)CC3)CC2)ccc1Nc1ncnc(Nc2ccccc2S(=O)(=O)C(C)C)n1 [ASP-3026],> 30 µM (inactive)
3,COc1cc(CCc2cc(NC(=O)c3ccc(N4C[C@@H](C)N[C@@H](C)C4)cc3)n[nH]2)cc(OC)c1 [AZD-4547],> 30 µM (inactive)

# Target: T4, Serine/threonine-protein kinase STK11 (Homo sapiens, UniProt Q15831)
# T4 sequence (Q15831 whole entry): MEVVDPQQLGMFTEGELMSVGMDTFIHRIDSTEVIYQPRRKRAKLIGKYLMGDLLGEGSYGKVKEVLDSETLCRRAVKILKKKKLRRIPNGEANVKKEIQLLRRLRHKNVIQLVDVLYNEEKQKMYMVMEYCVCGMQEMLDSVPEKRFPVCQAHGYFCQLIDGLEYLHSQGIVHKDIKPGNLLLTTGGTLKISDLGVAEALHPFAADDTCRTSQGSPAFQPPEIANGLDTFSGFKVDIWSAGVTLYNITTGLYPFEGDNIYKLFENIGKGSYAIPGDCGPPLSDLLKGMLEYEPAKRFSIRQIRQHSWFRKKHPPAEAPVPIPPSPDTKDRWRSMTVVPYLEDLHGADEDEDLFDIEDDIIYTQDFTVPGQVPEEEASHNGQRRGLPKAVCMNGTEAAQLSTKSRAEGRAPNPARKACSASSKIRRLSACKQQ
row,Compound,Kd
1,Cc1ccc(S(=O)(=O)Nc2nc3ccccc3nc2Nc2ccc3nsnc3c2)cc1,> 30 µM (inactive)
2,COc1cc(N2CCC(N3CCN(C)CC3)CC2)ccc1Nc1ncnc(Nc2ccccc2S(=O)(=O)C(C)C)n1 [ASP-3026],> 30 µM (inactive)
3,COc1cc(CCc2cc(NC(=O)c3ccc(N4C[C@@H](C)N[C@@H](C)C4)cc3)n[nH]2)cc(OC)c1 [AZD-4547],> 30 µM (inactive)

# Target: Adenosine kinase (Homo sapiens, UniProt P55263)
row,Compound,Kd
1,Cc1ccc(S(=O)(=O)Nc2nc3ccccc3nc2Nc2ccc3nsnc3c2)cc1,> 30 µM (inactive)
2,COc1cc(CCc2cc(NC(=O)c3ccc(N4C[C@@H](C)N[C@@H](C)C4)cc3)n[nH]2)cc(OC)c1 [AZD-4547],> 30 µM (inactive)
